Reference: patent US20080026996A1, “Selective Vpac2 Receptor Reptide Agonists” (ELI LILLY AND COMPANY, priority 2004, published 2008)
Where a SMILES comes first, the peptide text is derived from it. Where no end group is shown, it is not given here. [ ]: non-standard residue; d: D form. The star is where a group is joined. Hexanoyl = CCCCCC(=O)*; Aib = CC(C)(N)C(=O)O

Legend:
human VPAC2 [1] = biological target: T1, human VPAC2 (Homo sapiens, UniProt P41587); test: Alpha screen cAMP in vitro potency, human VPAC2 receptor; type: cell-based; conditions: cAMP generation; single result from two analyses performed in a single run; read-out: Human VPAC2 Receptor: Alpha Screen EC50
T1 construct: expressed in transfected cells
T1 sequence (P41587 24-438): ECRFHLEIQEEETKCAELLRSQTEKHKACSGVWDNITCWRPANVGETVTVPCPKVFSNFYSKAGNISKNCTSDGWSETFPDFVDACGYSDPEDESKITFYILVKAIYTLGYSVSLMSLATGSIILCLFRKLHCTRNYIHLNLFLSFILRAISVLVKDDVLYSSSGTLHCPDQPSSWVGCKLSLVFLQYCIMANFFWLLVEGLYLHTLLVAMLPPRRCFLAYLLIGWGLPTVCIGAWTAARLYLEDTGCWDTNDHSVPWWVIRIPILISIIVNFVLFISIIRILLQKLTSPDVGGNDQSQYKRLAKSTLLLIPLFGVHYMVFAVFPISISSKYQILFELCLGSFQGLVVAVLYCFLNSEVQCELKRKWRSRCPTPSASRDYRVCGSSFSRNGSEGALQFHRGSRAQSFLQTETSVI
How it was run: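 Stimulated cAMP accumulation is read by AlphaScreen after 60 min exposure of 50,000 non-enzymatically harvested cells to compound, followed by lysis with donor beads.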

human VPAC2 [2] = biological target: T1, human VPAC2; test: Filter binding assay, membranes of stable VPAC2 cell line, 125I-labeled VIP tracer (Table 2); conditions: read-out: Human VPAC2 Receptor Binding
How it was run: (§1)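 Membranes 2.5 μg/well; tracer ~40000 cpm; buffer 25 mM HEPES pH 7.4, 0.5% protease-free BSA; 1 h incubation, shaking. Glass-fibre filtration (0.5% polyethyleneamine presoak, 0.2% BSA block), 3× HEPES wash, dry 1 h at 60° C, scintillation count.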

[3] = Rat serum stability studies (remaining active peptide by DiscoveRx cAMP on CHO-VPAC2 cells); type: in vitro ADME
How it was run: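 EC50 from a DiscoveRx cAMP read-out on CHO-VPAC2 cells indexes how much peptide stays active after 18 h in rat serum at 37° C without aprotinin, against an aprotinin-protected 4° C aliquot.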

human VPAC1 = biological target: T2, human VPAC1 (Homo sapiens, UniProt P32241); test: Filter binding assay, membranes of cells transiently transfected with human VPAC1, 125I-labeled VIP tracer (Table 2); set-up: expressed in transfected cells; conditions: read-out: Human VPAC1 Receptor Binding
T2 sequence (P32241 31-457): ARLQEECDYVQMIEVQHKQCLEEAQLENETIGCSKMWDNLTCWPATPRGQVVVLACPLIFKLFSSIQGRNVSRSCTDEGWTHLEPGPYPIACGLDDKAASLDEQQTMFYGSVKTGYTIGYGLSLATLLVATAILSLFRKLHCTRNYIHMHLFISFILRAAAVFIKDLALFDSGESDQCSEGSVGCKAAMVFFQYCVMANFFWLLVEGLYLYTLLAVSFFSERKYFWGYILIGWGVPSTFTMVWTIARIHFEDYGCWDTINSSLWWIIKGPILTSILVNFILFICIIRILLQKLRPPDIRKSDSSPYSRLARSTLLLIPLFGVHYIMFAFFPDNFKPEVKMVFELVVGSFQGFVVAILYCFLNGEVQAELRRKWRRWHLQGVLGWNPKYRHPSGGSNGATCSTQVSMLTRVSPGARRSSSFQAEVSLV
How it was run: as §1

human PAC1 = biological target: T3, human PAC1 (Homo sapiens, UniProt P41586); test: Filter binding assay, membranes of cells transiently transfected with human PAC1, 125I-labeled PACAP-27 tracer (Table 2); set-up: expressed in transfected cells; conditions: read-out: Human PAC1 Receptor Binding
T3 sequence (P41586 21-468): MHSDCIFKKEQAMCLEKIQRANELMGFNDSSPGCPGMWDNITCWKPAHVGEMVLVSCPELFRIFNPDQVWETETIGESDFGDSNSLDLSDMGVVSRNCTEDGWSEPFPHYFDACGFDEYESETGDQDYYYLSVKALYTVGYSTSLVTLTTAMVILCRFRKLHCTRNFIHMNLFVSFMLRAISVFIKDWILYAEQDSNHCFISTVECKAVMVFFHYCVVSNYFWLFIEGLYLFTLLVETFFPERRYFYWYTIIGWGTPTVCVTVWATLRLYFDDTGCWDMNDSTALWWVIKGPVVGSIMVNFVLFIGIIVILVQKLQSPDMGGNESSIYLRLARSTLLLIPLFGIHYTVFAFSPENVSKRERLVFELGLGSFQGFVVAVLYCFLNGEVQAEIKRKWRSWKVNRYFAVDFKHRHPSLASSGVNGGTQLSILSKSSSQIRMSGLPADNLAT
How it was run: as §1

Compound | EC50 (human VPAC2 [1]) | IC50 (human VPAC2 [2]) | Rat Serum Stability (estimated purity in % after 18 hours) [3] | IC50 (human VPAC1) | IC50 (human PAC1) | Rat Serum Stability (Estimated purity in % after 72 hours) [3]
CCCCCC(=O)N[C@@H](Cc1c[nH]cn1)C(=O)N[C@@H](CO)C(=O)N[C@@H](CC(=O)O)C(=O)N[C@@H](C)C(=O)N[C@H](C(=O)N[C@@H](Cc1ccccc1)C(=O)N[C@H](C(=O)N[C@@H](CC(=O)O)C(=O)N[C@@H](CCC(N)=O)C(=O)N[C@@H](Cc1ccc(O)cc1)C(=O)N[C@H](C(=O)N[C@@H](CCCNC(=N)N)C(=O)N[C@@H](CC(C)C)C(=O)N[C@@H](CCCNC(=N)N)C(=O)N[C@@H](CCCNC(=N)N)C(=O)N[C@@H](CCC(N)=O)C(=O)N[C@H](C(=O)N[C@@H](C)C(=O)N[C@@H](C)C(=O)N[C@@H](CCCNC(=N)N)C(=O)N[C@@H](CCCCN)C(=O)N[C@@H](Cc1ccc(O)cc1)C(=O)N[C@@H](CC(C)C)C(=O)N[C@@H](CCC(N)=O)C(=O)N[C@@H](CO)C(=O)N[C@H](C(=O)N[C@@H](CCCNC(=N)N)C(=O)N[C@@H](CCC(N)=O)C(=O)NCC(=O)NCC(=O)N1CCC[C@H]1C(=O)N[C@@H](CO)C(=O)N[C@@H](CO)C(=O)NCC(=O)N[C@@H](C)C(=O)N1CCC[C@H]1C(=O)N1CCC[C@H]1C(=O)N1CCC[C@H]1C(=O)N[C@@H](CO)C(=O)O)[C@@H](C)CC)C(C)C)[C@@H](C)O)[C@@H](C)O)C(C)C [Agonist P220] (Hexanoyl-HSDAVFTDQYTRLRRQVAARKYLQSIRQGGPSSGAPPPS-OH; C-terminus assumed) | 0.12 nM | 0.25 nM | 0.08% | 5.86 nM | 849 nM | 
CCCCCC(=O)N[C@@H](Cc1c[nH]cn1)C(=O)N[C@@H](CO)C(=O)N[C@@H](CC(=O)O)C(=O)N[C@@H](C)C(=O)N[C@H](C(=O)N[C@@H](Cc1ccccc1)C(=O)N[C@H](C(=O)N[C@@H](CC(=O)O)C(=O)N[C@@H](CC(N)=O)C(=O)N[C@@H](Cc1ccc(O)cc1)C(=O)N[C@H](C(=O)N[C@@H](CCCNC(=N)N)C(=O)N[C@@H](CC(C)C)C(=O)N[C@@H](CCCNC(=N)N)C(=O)NC(C)(C)C(=O)N[C@@H](CCC(N)=O)C(=O)N[C@H](C(=O)N[C@@H](C)C(=O)N[C@@H](C)C(=O)NC(C)(C)C(=O)N[C@@H](CCCCN)C(=O)N[C@@H](Cc1ccc(O)cc1)C(=O)N[C@@H](CC(C)C)C(=O)N[C@@H](CCC(N)=O)C(=O)N[C@@H](CO)C(=O)N[C@H](C(=O)N[C@@H](CCCCN)C(=O)N[C@@H](CCC(N)=O)C(=O)N[C@@H](CCCCN)C(=O)NCC(=O)NCC(=O)N1CCC[C@H]1C(=O)N[C@@H](CO)C(=O)N[C@@H](CO)C(=O)NCC(=O)N[C@@H](C)C(=O)N1CCC[C@H]1C(=O)N1CCC[C@H]1C(=O)N1CCC[C@H]1C(=O)N[C@@H](CO)C(=O)O)[C@@H](C)CC)C(C)C)[C@@H](C)O)[C@@H](C)O)C(C)C [Agonist P294] (Hexanoyl-HSDAVFTDNYTRLR[Aib]QVAA[Aib]KYLQSIKQKGGPSSGAPPPS-OH; C-terminus assumed) | 0.24 nM | 0.45 nM | 24.25% | > 3000 nM | > 25000 nM | 
CCCCCC(=O)N[C@@H](Cc1c[nH]cn1)C(=O)N[C@@H](CO)C(=O)N[C@@H](CC(=O)O)C(=O)N[C@@H](C)C(=O)N[C@H](C(=O)N[C@@H](Cc1ccccc1)C(=O)N[C@H](C(=O)N[C@@H](CC(=O)O)C(=O)N[C@@H](CC(N)=O)C(=O)N[C@@H](Cc1ccc(O)cc1)C(=O)N[C@H](C(=O)N[C@@H](CCCNC(=N)N)C(=O)N[C@@H](CC(C)C)C(=O)NC(C)(C)C(=O)N[C@@H](CCCCN)C(=O)N[C@@H](CCC(N)=O)C(=O)N[C@H](C(=O)N[C@@H](C)C(=O)N[C@@H](C)C(=O)NC(C)(C)C(=O)N[C@@H](CCCCN)C(=O)N[C@@H](Cc1ccc(O)cc1)C(=O)N[C@@H](CC(C)C)C(=O)N[C@@H](CCC(N)=O)C(=O)N[C@@H](CO)C(=O)N[C@H](C(=O)N[C@@H](CCCCN)C(=O)N[C@@H](CCC(N)=O)C(=O)NCC(=O)NCC(=O)N1CCC[C@H]1C(=O)N[C@@H](CO)C(=O)N[C@@H](CO)C(=O)NCC(=O)N[C@@H](C)C(=O)N1CCC[C@H]1C(=O)N1CCC[C@H]1C(=O)N1CCC[C@H]1C(=O)N[C@@H](CO)C(=O)O)[C@@H](C)CC)C(C)C)[C@@H](C)O)[C@@H](C)O)C(C)C [Agonist P296] (Hexanoyl-HSDAVFTDNYTRL[Aib]KQVAA[Aib]KYLQSIKQGGPSSGAPPPS-OH; C-terminus assumed) |  | > 100 nM | 42.26% | > 3000 nM | > 25000 nM | 
Hexanoyl-HSDAVFTDNYTRLA[Aib]QVAA[Aib]KYLQSIKNKRYGGPSSGAPPPS [Agonist P301] |  | 7.27 nM | 6.86% | > 3000 nM | > 25000 nM | 
Hexanoyl-HSDAVFTDNYTRLRFQVAAKKYLQSIKNKRYGGPSSGAPPPS [Agonist P180] |  | 5.63 nM | 1.14% | > 3000 nM | 589 nM | 
Hexanoyl-HSDAVFTDNYTRLRKQVAAKKILQSIKNKRYGGPSSGAPPPS [Agonist P133] |  | 5.3 nM | <2.00% | 470 nM | 1940 nM | 
Hexanoyl-HSDAVFTDNYTRLRKQVAAKKYLQSIKNKRYGGPSSGAPPPC [Agonist P120] | 0.06 nM | 0.44 nM | 5% |  | 577 nM | 
Hexanoyl-HSDAVFTDNYTRL[Aib]KQLAAK[Aib]YLQSIKNKRYGGPSSGAPPPS [Agonist P241] |  | 18.1 nM | 62.55% | > 3000 nM | > 25000 nM | 
Hexanoyl-HSDAVFTDNYTRL[Aib]KQVAAAKYLQSIKNKRYGGPSSGAPPPS [Agonist P260] |  | 4.79 nM | 28.57% | 3320 nM | > 3000 nM | 
Hexanoyl-HSDAVFTDNYTRL[Aib]KQVAALKYLQSIKNKRYGGPSSGAPPPS [Agonist P259] |  | 13.2 nM | 17.65% | 3460 nM | > 3000 nM | 
Hexanoyl-HSDAVFTDNYTRL[Aib]KQVAAVKYLQSIKNKRYGGPSSGAPPPS [Agonist P269] |  | 10.1 nM | 23.85% | > 3000 nM | > 25000 nM | 
Hexanoyl-HSDAVFTDNYTRL[Aib]KQVAA[Aib]KYLQSIKNKRYGGPSSGAPPPS [Agonist P242] |  | 6.78 nM | 40.28% | > 3000 nM | > 25000 nM | 3.8%
Hexanoyl-HSDAVFTYNYTRLRKQVAAKKYLQSIKNKRYGGPSSGAPPPS [Agonist P163] |  | 2 nM | <1.25% | 35.7 nM | 238 nM | 
